From paper PMC7393338 (Acta Pharmacologica Sinica, 2020)

How the values were obtained:
[1] = intratracheal administration versus other routes, rats
SARS-CoV-2 PLpro = SARS-CoV-2 PLpro (Severe acute respiratory syndrome coronavirus 2, UniProt P0DTD1); assay: biochemical; details: read-out: PLpro Inhibition (%)

O=c1cc(-c2ccccc2)oc2cc(O)c(O)c(O)c12 [Baicalein]
target tissue (lung) distribution [1]: significantly increase their target tissue distribution
inhibition at 50 µM (SARS-CoV-2 PLpro): < 50%
